Columns and labels:
[1] = Inhibition of FLT3 ITD mutant (unknown origin) expressed in mouse BaF3 cells assessed as antiproliferative activity incubated for 72 hrs by CCK8 assay
[2] = Inhibition of TEL-FLT3 D835V mutant (unknown origin) expressed in mouse BaF3 cells assessed as antiproliferative activity incubated for 72 hrs by CCK8 assay
[3] = Inhibition of FLT3 ITD/D835V double mutant (unknown origin) expressed in mouse BaF3 cells assessed as antiproliferative activity incubated for 72 hrs by CCK8 assay

- IC50 [1]: 13 nM
- IC50 [2]: 30 nM
- IC50 [3]: 27 nM
Compound: Cc1c(NC(=O)CCN2CCCC2)c[nH]c1/C=C1\C(=O)Nc2ccc(F)cc21
